The source of these data is patent US20150322120A1 (priority 2012, published 2015).

One experiment has as its target rNav 1.7 (Rattus norvegicus, UniProt O08562). The experiment can be described thus: cell-based. It counts as cell-based.
Another experiment addresses hNaV1.7 (Homo sapiens, UniProt Q15858). It counts as cell-based.
Where [1] appears, read: read-out: rNav 1.7 % block peptide concentration.

Positions of bridges follow the written chain, without caps; N, C: chain ends. Non-standard residues stand in square brackets, D forms with d. Residues, ends and D or L forms follow the SMILES beside them. Chains are numbered I, II in the order given. No end group written: not given here. *: point of attachment. Glutathionyl = N[C@@H](CCC(=O)N[C@@H](CS*)C(=O)NCC(=O)O)C(=O)O; Hyp = O=C(O)[C@@H]1C[C@@H](O)CN1

Sequence of rNav 1.7 (O08562 whole entry, looked up): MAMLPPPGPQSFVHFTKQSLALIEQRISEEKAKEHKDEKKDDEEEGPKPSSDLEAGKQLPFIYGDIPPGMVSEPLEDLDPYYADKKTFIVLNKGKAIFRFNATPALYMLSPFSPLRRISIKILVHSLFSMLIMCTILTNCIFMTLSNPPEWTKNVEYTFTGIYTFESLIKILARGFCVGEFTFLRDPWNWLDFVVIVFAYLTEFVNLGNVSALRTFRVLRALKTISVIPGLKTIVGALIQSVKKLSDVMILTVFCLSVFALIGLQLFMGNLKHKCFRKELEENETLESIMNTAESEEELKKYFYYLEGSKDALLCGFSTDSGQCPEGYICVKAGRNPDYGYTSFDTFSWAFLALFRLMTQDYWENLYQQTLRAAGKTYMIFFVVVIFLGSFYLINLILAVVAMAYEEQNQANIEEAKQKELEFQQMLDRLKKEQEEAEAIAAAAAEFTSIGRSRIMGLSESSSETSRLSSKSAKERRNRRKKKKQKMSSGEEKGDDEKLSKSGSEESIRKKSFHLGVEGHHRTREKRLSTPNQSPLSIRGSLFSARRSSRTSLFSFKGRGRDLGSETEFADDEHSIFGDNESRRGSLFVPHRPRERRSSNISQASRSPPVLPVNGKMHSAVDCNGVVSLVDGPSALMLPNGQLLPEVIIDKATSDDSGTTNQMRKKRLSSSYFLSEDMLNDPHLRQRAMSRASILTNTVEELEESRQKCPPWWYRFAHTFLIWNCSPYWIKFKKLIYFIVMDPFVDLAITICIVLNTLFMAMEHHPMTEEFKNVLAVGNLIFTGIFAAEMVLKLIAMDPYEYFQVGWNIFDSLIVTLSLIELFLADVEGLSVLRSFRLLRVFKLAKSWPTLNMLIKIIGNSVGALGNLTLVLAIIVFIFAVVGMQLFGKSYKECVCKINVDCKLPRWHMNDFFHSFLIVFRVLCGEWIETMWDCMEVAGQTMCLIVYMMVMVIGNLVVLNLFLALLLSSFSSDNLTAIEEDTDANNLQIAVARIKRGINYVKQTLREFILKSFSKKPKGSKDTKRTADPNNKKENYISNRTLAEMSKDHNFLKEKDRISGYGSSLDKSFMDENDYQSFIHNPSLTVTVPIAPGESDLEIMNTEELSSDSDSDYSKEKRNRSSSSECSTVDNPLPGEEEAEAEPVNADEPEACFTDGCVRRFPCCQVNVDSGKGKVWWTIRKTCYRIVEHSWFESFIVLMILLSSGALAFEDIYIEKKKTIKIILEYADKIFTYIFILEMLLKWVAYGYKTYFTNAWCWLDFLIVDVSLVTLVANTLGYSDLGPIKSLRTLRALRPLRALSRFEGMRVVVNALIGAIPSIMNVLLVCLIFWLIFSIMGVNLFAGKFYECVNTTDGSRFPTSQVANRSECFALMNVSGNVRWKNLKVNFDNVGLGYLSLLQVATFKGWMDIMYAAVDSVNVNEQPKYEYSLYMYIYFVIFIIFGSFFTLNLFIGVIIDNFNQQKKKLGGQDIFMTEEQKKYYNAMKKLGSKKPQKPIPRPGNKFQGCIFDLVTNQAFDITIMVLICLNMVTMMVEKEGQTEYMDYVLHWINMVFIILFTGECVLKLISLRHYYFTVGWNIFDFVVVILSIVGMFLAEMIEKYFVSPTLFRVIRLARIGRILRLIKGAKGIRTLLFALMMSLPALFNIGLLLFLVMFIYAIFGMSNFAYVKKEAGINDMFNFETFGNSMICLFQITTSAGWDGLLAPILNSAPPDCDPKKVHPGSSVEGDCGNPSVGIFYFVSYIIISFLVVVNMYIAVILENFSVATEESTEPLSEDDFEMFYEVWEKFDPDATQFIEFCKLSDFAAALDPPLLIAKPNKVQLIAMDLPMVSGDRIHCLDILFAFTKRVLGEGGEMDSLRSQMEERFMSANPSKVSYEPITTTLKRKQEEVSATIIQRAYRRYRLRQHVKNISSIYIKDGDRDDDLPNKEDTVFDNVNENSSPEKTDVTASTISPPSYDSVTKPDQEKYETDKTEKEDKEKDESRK
Sequence of hNaV1.7 (Q15858 whole entry, looked up): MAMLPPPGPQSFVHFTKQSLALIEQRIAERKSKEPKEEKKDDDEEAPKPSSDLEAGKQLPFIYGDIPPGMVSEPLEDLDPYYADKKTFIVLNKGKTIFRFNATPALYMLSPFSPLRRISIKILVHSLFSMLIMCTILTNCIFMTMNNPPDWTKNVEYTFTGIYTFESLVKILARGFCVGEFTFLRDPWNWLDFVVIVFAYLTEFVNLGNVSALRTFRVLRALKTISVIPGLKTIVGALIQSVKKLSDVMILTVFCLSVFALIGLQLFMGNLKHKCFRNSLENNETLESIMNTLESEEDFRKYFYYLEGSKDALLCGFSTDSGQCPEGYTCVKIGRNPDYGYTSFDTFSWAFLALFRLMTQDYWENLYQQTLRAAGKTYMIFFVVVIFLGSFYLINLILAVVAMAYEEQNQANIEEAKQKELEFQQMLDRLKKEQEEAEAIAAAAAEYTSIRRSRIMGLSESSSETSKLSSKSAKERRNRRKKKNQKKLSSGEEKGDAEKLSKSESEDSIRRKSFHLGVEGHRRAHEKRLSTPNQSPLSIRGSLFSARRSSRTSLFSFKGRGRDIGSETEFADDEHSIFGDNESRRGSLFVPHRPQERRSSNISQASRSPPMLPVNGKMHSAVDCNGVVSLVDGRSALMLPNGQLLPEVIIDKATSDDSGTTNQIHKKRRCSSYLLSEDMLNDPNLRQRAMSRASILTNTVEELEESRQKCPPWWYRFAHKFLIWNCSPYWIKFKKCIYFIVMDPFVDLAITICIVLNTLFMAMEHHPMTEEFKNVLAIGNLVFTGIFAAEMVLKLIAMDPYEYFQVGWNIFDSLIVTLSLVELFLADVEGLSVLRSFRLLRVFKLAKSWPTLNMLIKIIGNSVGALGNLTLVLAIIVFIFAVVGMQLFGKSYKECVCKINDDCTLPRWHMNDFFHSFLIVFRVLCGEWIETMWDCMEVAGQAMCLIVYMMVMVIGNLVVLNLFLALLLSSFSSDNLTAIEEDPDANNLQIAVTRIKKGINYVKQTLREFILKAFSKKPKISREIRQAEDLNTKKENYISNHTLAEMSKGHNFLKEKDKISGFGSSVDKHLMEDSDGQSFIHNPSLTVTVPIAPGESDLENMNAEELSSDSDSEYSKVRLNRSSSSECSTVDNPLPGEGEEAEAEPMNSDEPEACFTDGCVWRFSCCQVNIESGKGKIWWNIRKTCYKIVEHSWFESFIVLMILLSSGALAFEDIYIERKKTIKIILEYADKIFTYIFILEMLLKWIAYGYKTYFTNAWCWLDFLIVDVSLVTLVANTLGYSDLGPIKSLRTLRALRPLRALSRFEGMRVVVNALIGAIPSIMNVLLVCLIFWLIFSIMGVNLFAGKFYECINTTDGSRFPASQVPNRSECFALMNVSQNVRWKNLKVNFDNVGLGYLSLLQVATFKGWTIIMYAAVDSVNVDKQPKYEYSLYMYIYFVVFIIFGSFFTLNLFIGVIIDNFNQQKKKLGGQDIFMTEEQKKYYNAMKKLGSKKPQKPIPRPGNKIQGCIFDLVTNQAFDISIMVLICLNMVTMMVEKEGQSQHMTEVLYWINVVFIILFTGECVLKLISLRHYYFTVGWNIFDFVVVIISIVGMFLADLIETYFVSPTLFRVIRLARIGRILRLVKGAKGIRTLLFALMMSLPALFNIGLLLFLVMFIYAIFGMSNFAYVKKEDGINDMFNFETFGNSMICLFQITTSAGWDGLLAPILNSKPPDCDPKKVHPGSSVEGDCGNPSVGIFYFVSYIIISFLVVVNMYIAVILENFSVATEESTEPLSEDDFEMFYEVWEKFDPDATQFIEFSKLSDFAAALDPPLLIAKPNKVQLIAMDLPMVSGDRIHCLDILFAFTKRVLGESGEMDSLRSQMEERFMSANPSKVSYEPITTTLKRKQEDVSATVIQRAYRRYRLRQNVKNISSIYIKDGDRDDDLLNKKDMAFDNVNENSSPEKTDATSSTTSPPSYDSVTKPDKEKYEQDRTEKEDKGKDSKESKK

“CVGRDSKCGP PPCCMGMTCN YERVRKCT [SEQ ID 025]”: the “activity against rNav1.7” value on rNav 1.7 was “not active”. For the same compound, the “activity against hNav1.7” value on hNaV1.7 was “not active”. For “GWCGDOGATCGKLRLYCCSGFCD(Abu)YTKTCKDKS_A [C. geo1[C24Abu,des-Ser34]]”, on rNav 1.7, the “% block of NaV1.7 from rat” value was found to be 20% and the “reversibility of NaV1.7 block” value is recorded as “quickly reversible”. Turning to `CC(C)C[C@@H]1NC(=O)[C@H](CCCCN)NC(=O)CNC(=O)[C@@H]2CSSC[C@@H]3NC(=O)[C@H](Cc4ccccc4)NC(=O)CNC(=O)[C@H](CO)NC(=O)[C@H](CSSC[C@H](NC(=O)[C@H](Cc4c[nH]c5ccccc45)NC(=O)CN)C(=O)NCC(=O)N[C@@H](CC(=O)O)C(=O)N4C[C@H](O)C[C@H]4C(=O)NCC(=O)N[C@@H](C)C(=O)N[C@@H]([C@@H](C)O)C(=O)N2)NC(=O)[C@H](CSSC[C@@H](C(=O)N[C@@H](CCCCN)C(=O)N[C@@H](CC(=O)O)C(=O)N[C@@H](CCCCN)C(=O)N[C@@H](CO)C(=O)N[C@@H](CO)C(=O)N[C@@H](C)C(=O)O)NC(=O)[C@H]([C@@H](C)O)NC(=O)CNC(=O)[C@H]([C@@H](C)O)NC(=O)[C@H](Cc2ccc(O)cc2)NC(=O)[C@H](CSSC[C@H](NC(=O)CC[C@H](N)C(=O)O)C(=O)NCC(=O)O)NC(=O)[C@H](CC(=O)O)NC3=O)NC(=O)[C@H](Cc2ccc(O)cc2)NC(=O)[C@H](CC(C)C)NC(=O)[C@H](CCCNC(=N)N)NC1=O` [C.geeo1[K27G]], at rNav 1.7 (setting [1]), the inhibition at 33 µM worked out at 60%. Still for that read-out and setting: the figure for `CC(C)C[C@@H]1NC(=O)[C@H](CCCCN)NC(=O)CNC(=O)[C@@H]2CSSC[C@@H]3NC(=O)[C@H](Cc4ccccc4)NC(=O)CNC(=O)[C@H](CO)NC(=O)[C@H](CSSC[C@H](NC(=O)[C@H](Cc4c[nH]c5ccccc45)NC(=O)CN)C(=O)NCC(=O)N[C@@H](CC(=O)O)C(=O)N4C[C@H](O)C[C@H]4C(=O)NCC(=O)N[C@@H](C)C(=O)N[C@@H]([C@@H](C)O)C(=O)N2)NC(=O)[C@H](CSSC[C@@H](C(=O)N[C@@H](CCCCN)C(=O)N[C@@H](CC(=O)O)C(=O)N[C@@H](CCCCN)C(=O)N[C@@H](CO)C(=O)N[C@@H](CO)C(=O)N[C@@H](C)C(=O)O)NC(=O)[C@H]([C@@H](C)O)NC(=O)[C@H](CCCCN)NC(=O)[C@H]([C@@H](C)O)NC(=O)[C@H](Cc2ccc(O)cc2)NC(=O)[C@H](CCCCN)NC(=O)[C@H](CC(=O)O)NC3=O)NC(=O)[C@H](Cc2ccc(O)cc2)NC(=O)[C@H](CC(C)C)NC(=O)[C@H](CCCNC(=N)N)NC1=O` [C.geo1[C24K]] (H-GWCGD[Hyp]GATCGKLRLYCCSGFCDKYTKTCKDKSSA-OH; disulfide 3-18, 10-22, 17-29) is 20%; for `CC[C@@H]1NC(=O)[C@H](CC(=O)O)NC(=O)[C@@H]2CSSC[C@@H]3NC(=O)[C@H]([C@@H](C)O)NC(=O)[C@H](C)NC(=O)CNC(=O)[C@@H]4C[C@@H](O)CN4C(=O)[C@H](CC(=O)O)NC(=O)CNC(=O)[C@@H](NC(=O)[C@H](Cc4c[nH]c5ccccc45)NC(=O)CN)CSSC[C@H](NC(=O)[C@H](CSSC[C@@H](C(=O)N[C@@H](CCCCN)C(=O)N[C@@H](CC(=O)O)C(=O)N[C@@H](CCCCN)C(=O)N[C@@H](CO)C(=O)N[C@@H](CO)C(=O)N[C@@H](C)C(=O)O)NC(=O)[C@H]([C@@H](C)O)NC(=O)[C@H](CCCCN)NC(=O)[C@H]([C@@H](C)O)NC(=O)[C@H](Cc4ccc(O)cc4)NC1=O)NC(=O)[C@H](Cc1ccc(O)cc1)NC(=O)[C@H](CC(C)C)NC(=O)[C@H](CCCNC(=N)N)NC(=O)[C@H](CC(C)C)NC(=O)[C@H](CCCCN)NC(=O)CNC3=O)C(=O)N[C@@H](CO)C(=O)NCC(=O)N[C@@H](Cc1ccccc1)C(=O)N2` [C.geo1[C24Abu]] it is 20%.

As for “I: GWCGD[Hyp]GATCGKLRLYCCSGFCDCYTKTCKDKSSA / II: GWCGD[Hyp]GATCGKLRLYCCSGFCDCYTKTCKDKSSA (disulfide I:3-I:18, I:10-I:22, I:17-I:29, I:24-II:24, II:3-II:18, II:10-II:22, II:17-II:29) [C.geo1[dimer]]”, the inhibition at 30 µM at rNav 1.7 (setting [1]) was 70%.

Take `CC(C)C[C@@H]1NC(=O)[C@H](CCCCN)NC(=O)CNC(=O)[C@@H]2CSSC[C@@H]3NC(=O)[C@H](Cc4ccccc4)NC(=O)CNC(=O)[C@H](CO)NC(=O)[C@H](CSSC[C@H](NC(=O)[C@H](Cc4c[nH]c5ccccc45)NC(=O)CN)C(=O)NCC(=O)N[C@@H](CC(=O)O)C(=O)N4C[C@H](O)C[C@H]4C(=O)NCC(=O)N[C@@H](C)C(=O)N[C@@H]([C@@H](C)O)C(=O)N2)NC(=O)[C@H](CSSC[C@@H](C(=O)N[C@@H](CCCCN)C(=O)N[C@@H](CC(=O)O)C(=O)N[C@@H](CCCCN)C(=O)N[C@@H](CO)C(=O)N[C@@H](CO)C(=O)N[C@@H](C)C(=O)O)NC(=O)[C@H]([C@@H](C)O)NC(=O)[C@H](CCCCN)NC(=O)[C@H]([C@@H](C)O)NC(=O)[C@H](Cc2ccc(O)cc2)NC(=O)[C@H](CO)NC(=O)[C@H](CC(=O)O)NC3=O)NC(=O)[C@H](Cc2ccc(O)cc2)NC(=O)[C@H](CC(C)C)NC(=O)[C@H](CCCNC(=N)N)NC1=O` [C.geo1[C24S]] (H-GWCGD[Hyp]GATCGKLRLYCCSGFCDSYTKTCKDKSSA-OH; disulfide 3-18, 10-22, 17-29): the inhibition at 33 µM on rNav 1.7 (setting [1]) is 20%. Turning to `CC(C)C[C@@H]1NC(=O)[C@H](CCCCN)NC(=O)CNC(=O)[C@@H]2CSSC[C@@H]3NC(=O)[C@H](Cc4ccccc4)NC(=O)CNC(=O)[C@H](CO)NC(=O)[C@H](CSSC[C@H](NC(=O)[C@H](Cc4c[nH]c5ccccc45)NC(=O)CN)C(=O)NCC(=O)N[C@@H](CC(=O)O)C(=O)N[C@@H](C)C(=O)NCC(=O)N[C@@H](C)C(=O)N[C@@H]([C@@H](C)O)C(=O)N2)NC(=O)[C@H](CSSC[C@@H](C(=O)N[C@@H](CCCCN)C(=O)N[C@@H](CC(=O)O)C(=O)N[C@@H](CCCCN)C(=O)N[C@@H](CO)C(=O)N[C@@H](CO)C(=O)N[C@@H](C)C(=O)O)NC(=O)[C@H]([C@@H](C)O)NC(=O)[C@H](CCCCN)NC(=O)[C@H]([C@@H](C)O)NC(=O)[C@H](Cc2ccc(O)cc2)NC(=O)[C@H](CSSC[C@H](NC(=O)CC[C@H](N)C(=O)O)C(=O)NCC(=O)O)NC(=O)[C@H](CC(=O)O)NC3=O)NC(=O)[C@H](Cc2ccc(O)cc2)NC(=O)[C@H](CC(C)C)NC(=O)[C@H](CCCNC(=N)N)NC1=O` [C.geo1[O6A]] (H-GWCGDAGATCGKLRLYCCSGFCDC(Glutathionyl)YTKTCKDKSSA-OH; disulfide 3-18, 10-22, 17-29), the inhibition at 33 µM at rNav 1.7 (setting [1]) was found to be 60%. Regarding `CC(C)C[C@@H]1NC(=O)[C@H](CCCCN)NC(=O)CNC(=O)[C@@H]2CSSC[C@@H]3NC(=O)[C@H](Cc4ccccc4)NC(=O)CNC(=O)[C@H](CO)NC(=O)[C@H](CSSC[C@H](NC(=O)[C@H](Cc4c[nH]c5ccccc45)NC(=O)CN)C(=O)NCC(=O)N[C@@H](CC(=O)O)C(=O)N4C[C@H](O)C[C@H]4C(=O)NCC(=O)N[C@@H](C)C(=O)N[C@@H]([C@@H](C)O)C(=O)N2)NC(=O)[C@H](CSSC[C@@H](C(=O)N[C@@H](CCCCN)C(=O)N[C@@H](CC(=O)O)C(=O)N[C@@H](CCCCN)C(=O)N[C@@H](CO)C(=O)N[C@@H](CO)C(=O)N[C@@H](C)C(=O)O)NC(=O)[C@H]([C@@H](C)O)NC(=O)[C@H](CCCCN)NC(=O)[C@H]([C@@H](C)O)NC(=O)[C@H](Cc2ccc(O)cc2)NC(=O)[C@H](CCC(=O)O)NC(=O)[C@H](CC(=O)O)NC3=O)NC(=O)[C@H](Cc2ccc(O)cc2)NC(=O)[C@H](CC(C)C)NC(=O)[C@H](CCCNC(=N)N)NC1=O` [C.geo1[C24E]] (H-GWCGD[Hyp]GATCGKLRLYCCSGFCDEYTKTCKDKSSA-OH; disulfide 3-18, 10-22, 17-29), at rNav 1.7 (setting [1]), the inhibition at 33 µM stood at 15%. The same measure, in the same setting: the figure for `CC(=O)NCSC[C@@H]1NC(=O)[C@H](CC(=O)O)NC(=O)[C@@H]2CSSC[C@@H]3NC(=O)[C@H]([C@@H](C)O)NC(=O)[C@H](C)NC(=O)CNC(=O)[C@@H]4C[C@@H](O)CN4C(=O)[C@H](CC(=O)O)NC(=O)CNC(=O)[C@@H](NC(=O)[C@H](Cc4c[nH]c5ccccc45)NC(=O)CN)CSSC[C@H](NC(=O)[C@H](CSSC[C@@H](C(=O)N[C@@H](CCCCN)C(=O)N[C@@H](CC(=O)O)C(=O)N[C@@H](CCCCN)C(=O)N[C@@H](CO)C(=O)N[C@@H](CO)C(=O)N[C@@H](C)C(=O)O)NC(=O)[C@H]([C@@H](C)O)NC(=O)[C@H](CCCCN)NC(=O)[C@H]([C@@H](C)O)NC(=O)[C@H](Cc4ccc(O)cc4)NC1=O)NC(=O)[C@H](Cc1ccc(O)cc1)NC(=O)[C@H](CC(C)C)NC(=O)[C@H](CCCNC(=N)N)NC(=O)[C@H](CC(C)C)NC(=O)[C@H](CCCCN)NC(=O)CNC3=O)C(=O)N[C@@H](CO)C(=O)NCC(=O)N[C@@H](Cc1ccccc1)C(=O)N2` [C.geo1[C24Cys(Acm)]] is 70%. “DWCGDAGDACGTLKLRCCSGLCNQYSGTCTG [C. geo2]”: the “% block of hNaV1.7” value at hNaV1.7 amounted to 69%.
